#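 Protocol summary: plate cells (96-well), add compound at 5 concentrations, incubate 48 h, interpolate endpoints linearly. At the GI50, growth is halved.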 Calls of active or inactive are those of the source. Cut-off read from the data, not from the text of the source: active = GI50 up to about 1.1 µM and inactive = higher. Non-standard residues stand in square brackets, D forms with d. Residues, ends and D or L forms follow the SMILES beside them. *: point of attachment. Phe(4-NO2) = N[CH](Cc1ccc([N+](=O)[O-])cc1)C(=O)O; Boc = CC(C)(C)OC(=O)*
# How the values were obtained:
# Test in all cases: DTP human tumour cell line panel, 48 h
# [1] = tested on: HCT-15
# [2] = tested on: A498
# [3] = tested on: UACC-257
# [4] = tested on: HT-29
# [5] = tested on: TK-10
# [6] = tested on: OVCAR-5
# [7] = tested on: ACHN
# [8] = tested on: MCF7
# [9] = tested on: EKVX
# [10] = tested on: HOP-62
# [11] = tested on: RPMI-8226
# [12] = tested on: K562
# [13] = tested on: SK-OV-3
# [14] = tested on: MOLT-4
# [15] = tested on: SNB-19
# [16] = tested on: M14
# [17] = tested on: LOX IMVI
# [18] = tested on: HCT-116
# [19] = tested on: OVCAR-8
# [20] = tested on: SF-295
Compound,GI50 [1] [µM],GI50 [2],GI50 [3],GI50 [4],GI50 [5],GI50 [6],GI50 [7],GI50 [8],GI50 [9],GI50 [10],GI50 [11],GI50 [12],GI50 [13],GI50 [14],GI50 [15],GI50 [16],GI50 [17],GI50 [18],GI50 [19],GI50 [20]
CC1CN=C(Nc2cccc(C(F)(F)F)c2)S1 (configuration not stated),36.1,42 µM (inactive),52.5 µM (inactive),78.7 µM (inactive),84.5 µM (inactive),> 100 µM (inactive),> 100 µM (inactive),44.7 µM (inactive),34.1 µM (inactive),95.3 µM (inactive),23.4 µM (inactive),30.4 µM (inactive),94.4 µM (inactive),25.4 µM (inactive),95.5 µM (inactive),> 100 µM (inactive),43.5 µM (inactive),41.7 µM (inactive),,
COc1ccc(OC)c(C(=O)/C=C/c2cc(O)c(O)cc2F)c1,0.076,3.17 µM (inactive),3.1 µM (inactive),7.14 µM (inactive),6.58 µM (inactive),13 µM (inactive),2.27 µM (inactive),0.29 µM (active),8.04 µM (inactive),1.05 µM (active),0.678 µM (active),0.356 µM (active),3.35 µM (inactive),0.321 µM (active),0.619 µM (active),0.638 µM (active),0.69 µM (active),0.47 µM (active),2.14 µM (inactive),1.33 µM (inactive)
CC(C)(C)[Si](C)(C)OCCOCn1cc(F)c(=O)[nH]c1=O,> 100,> 100 µM (inactive),> 100 µM (inactive),> 100 µM (inactive),> 100 µM (inactive),> 100 µM (inactive),> 100 µM (inactive),> 100 µM (inactive),> 100 µM (inactive),> 100 µM (inactive),> 100 µM (inactive),> 100 µM (inactive),> 100 µM (inactive),> 100 µM (inactive),> 100 µM (inactive),> 100 µM (inactive),> 100 µM (inactive),> 100 µM (inactive),> 100 µM (inactive),> 100 µM (inactive)
NC(=O)NN=C(CS)CS,22.8,14.9 µM (inactive),19.5 µM (inactive),20.7 µM (inactive),,24.1 µM (inactive),,24 µM (inactive),18.8 µM (inactive),0.492 µM (active),46.1 µM (inactive),51.1 µM (inactive),89.3 µM (inactive),23.7 µM (inactive),23.1 µM (inactive),,15.7 µM (inactive),38.5 µM (inactive),27.5 µM (inactive),23.7 µM (inactive)
O=C(NCCCCCCNC(=O)n1cc(F)c(=O)[nH]c1=O)NCCCOCCOCCCNC(=O)C(O)C(O)C(O)C(O)CO (configuration not stated),2.43,> 2.5 µM (inactive),> 2.5 µM (inactive),> 2.32 µM (inactive),,> 2.5 µM (inactive),,> 2.27 µM (inactive),> 2.5 µM (inactive),> 2.5 µM (inactive),> 2.5 µM (inactive),> 2.5 µM (inactive),> 2.5 µM (inactive),> 2.5 µM (inactive),> 2.5 µM (inactive),,> 2.16 µM (inactive),> 2.05 µM (inactive),> 2.5 µM (inactive),> 2.5 µM (inactive)
N#CC1=C(N)C(C#N)(C#N)C(c2ccc(F)cc2)C=C1C1CC1 (configuration not stated),9.77,11.4 µM (inactive),9.12 µM (inactive),6.12 µM (inactive),15.5 µM (inactive),12.6 µM (inactive),12.9 µM (inactive),5.09 µM (inactive),17.6 µM (inactive),13.1 µM (inactive),7.05 µM (inactive),6.03 µM (inactive),8.93 µM (inactive),4.81 µM (inactive),13.2 µM (inactive),4.21 µM (inactive),3.94 µM (inactive),4.01 µM (inactive),9.93 µM (inactive),11.2 µM (inactive)
Nc1ncnc2c1sc1nc3ccccc3n12,> 100,> 61.7 µM (inactive),> 100 µM (inactive),> 70.8 µM (inactive),> 100 µM (inactive),> 93.3 µM (inactive),57.7 µM (inactive),23 µM (inactive),35.1 µM (inactive),> 70.1 µM (inactive),> 91.4 µM (inactive),> 100 µM (inactive),12.5 µM (inactive),11.8 µM (inactive),> 100 µM (inactive),> 84.1 µM (inactive),4.13 µM (inactive),,60.8 µM (inactive),> 56.2 µM (inactive)
CN1C(=O)[C@@H]2[C@@H]3c4ccccc4N[C@@H]3c3[nH]c4ccccc4c3[C@@H]2C1=O,18.8,25.4 µM (inactive),17.9 µM (inactive),36.1 µM (inactive),23.8 µM (inactive),20.1 µM (inactive),18.5 µM (inactive),22.4 µM (inactive),27.1 µM (inactive),19.5 µM (inactive),18.7 µM (inactive),22.3 µM (inactive),26.1 µM (inactive),19.1 µM (inactive),29.6 µM (inactive),,20.6 µM (inactive),29.4 µM (inactive),21.6 µM (inactive),18.6 µM (inactive)
C[C@]12C[C@H](O)[C@H]3[C@@H](CCC4=CC(=O)CC[C@@]43C)[C@@H]1CC[C@@H]2c1csc(-c2ccccc2)n1,> 100,> 39 µM (inactive),3.48 µM (inactive),> 30.3 µM (inactive),26.1 µM (inactive),> 100 µM (inactive),> 50.6 µM (inactive),> 23 µM (inactive),21 µM (inactive),9.53 µM (inactive),3.56 µM (inactive),1.52 µM (inactive),27.5 µM (inactive),0.625 µM (active),29.6 µM (inactive),> 92.7 µM (inactive),> 58.3 µM (inactive),> 100 µM (inactive),35.8 µM (inactive),> 100 µM (inactive)
CC(=O)NC(Cc1ccsc1)C(=O)O (configuration not stated),> 100,> 100 µM (inactive),> 100 µM (inactive),> 100 µM (inactive),,> 100 µM (inactive),,> 100 µM (inactive),> 100 µM (inactive),> 100 µM (inactive),> 100 µM (inactive),> 100 µM (inactive),> 100 µM (inactive),> 100 µM (inactive),> 100 µM (inactive),,> 100 µM (inactive),> 100 µM (inactive),> 100 µM (inactive),> 62.2 µM (inactive)
COC(=O)CCC(NC(=O)OC(C)(C)C)C(=O)NC(Cc1ccc([N+](=O)[O-])cc1)C(=O)NC(CCC(=O)OC)C(=O)OC (configuration not stated) (Boc-Glu(OMe)-[Phe(4-NO2)]-Glu(OMe)-OMe; configuration not given here),> 100,> 100 µM (inactive),11.3 µM (inactive),87.3 µM (inactive),> 100 µM (inactive),> 100 µM (inactive),> 100 µM (inactive),> 100 µM (inactive),> 100 µM (inactive),> 100 µM (inactive),27 µM (inactive),35.4 µM (inactive),> 100 µM (inactive),24.9 µM (inactive),> 100 µM (inactive),> 100 µM (inactive),26.6 µM (inactive),> 100 µM (inactive),> 100 µM (inactive),> 100 µM (inactive)

# From ChEMBL document CHEMBL1201862, “PubChem BioAssay data set” (2004)
